Data as given in ChEMBL document CHEMBL1127733, “Aspartyl alpha-((1-phenyl-3-(trifluoromethyl)-pyrazol-5-yl)oxy)methyl ketones as interleukin-1 beta converting enzyme inhibitors. Significance of the P1 and P3 amido nitrogens for enzyme-peptide inhibitor binding” (J Med Chem, 1994).

Target: T1, Caspase-1 (Homo sapiens) (UniProt P29466)
T1 sequence (whole entry): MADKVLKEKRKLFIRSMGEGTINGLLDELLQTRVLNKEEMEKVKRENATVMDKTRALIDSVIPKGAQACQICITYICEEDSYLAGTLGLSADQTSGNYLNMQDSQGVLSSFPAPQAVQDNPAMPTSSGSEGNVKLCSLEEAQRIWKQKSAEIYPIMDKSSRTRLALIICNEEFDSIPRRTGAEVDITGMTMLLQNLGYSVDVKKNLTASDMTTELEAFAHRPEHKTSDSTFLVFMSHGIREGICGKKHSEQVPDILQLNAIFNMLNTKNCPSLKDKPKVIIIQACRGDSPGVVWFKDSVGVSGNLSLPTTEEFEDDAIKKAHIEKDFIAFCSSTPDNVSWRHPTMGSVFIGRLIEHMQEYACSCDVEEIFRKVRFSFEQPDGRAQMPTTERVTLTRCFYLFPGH
Assay: Inhibition constant against interleukin-1-beta converting enzyme

Structure (SMILES)	K obs / 1 [M⁻¹ s⁻¹]
CC(C)[C@@H](C(=O)N[C@@H](C)C(=O)N[C@@H](CC(=O)O)C(=O)COc1cc(C(F)(F)F)nn1-c1ccccc1)N(C)C(=O)OCc1ccccc1	8600
O=C(O)C[C@H](NC(=O)OCc1ccccc1)C(=O)COc1cc(C(F)(F)F)nn1-c1ccccc1	11000
CC(C)[C@H](NC(=O)OCc1ccccc1)C(=O)N[C@@H](C)C(=O)N(C)[C@@H](CC(=O)O)C(=O)COc1cc(C(F)(F)F)nn1-c1ccccc1	< 300

Further lines, results first:

K obs / 1 [M⁻¹ s⁻¹]	Structure (SMILES)
233000	CC(C)[C@H](NC(=O)OCc1ccccc1)C(=O)N(C)[C@@H](C)C(=O)N[C@@H](CC(=O)O)C(=O)COc1cc(C(F)(F)F)nn1-c1ccccc1
116000	CC(C)[C@H](NC(=O)OCc1ccccc1)C(=O)N1CCC[C@H]1C(=O)N[C@@H](CC(=O)O)C(=O)COc1cc(C(F)(F)F)nn1-c1ccccc1
20000	CC(C)[C@H](NC(=O)OCc1ccccc1)C(=O)N[C@@H](CC(=O)O)C(=O)COc1cc(C(F)(F)F)nn1-c1ccccc1
46200	CC(C)[C@H](NC(=O)OCc1ccccc1)C(=O)N1CC[C@H]1C(=O)N[C@@H](CC(=O)O)C(=O)COc1cc(C(F)(F)F)nn1-c1ccccc1
